Assay results reported in patent US8048925B2, “Bis(thio-hydrazide amide) salts for treatment of cancers” (Synta Pharmaceuticals Corp., priority 2004, dated 2011).
Like-named read-outs stand apart in the source and are kept apart here.

Tests used:
[1] = Pharmacokinetics study in dog, bioavailability AUCpo/AUCiv; assay type: in vivo
Procedure: Male beagle dogs were acclimated for at least one week prior to use, were fed laboratory chow and water ad libitum, and were housed in temperature and humidity controlled rooms. Compounds were prepared as a solution for intravenous injection or a capsule for oral administration. Three dogs were used for the study. Compounds were injected intravenously via cephalic vein or by oral gavage. The dose was adjusted based on the animal's body weight. Blood samples were collected at intervals of 5, 10 and 30 min and 1, 2, 4, 6, 8 and 24 hr (example) after administration of the compound and plasma samples were prepared after centrifugation (5000 rpm, 8 min) of whole blood samples. Compound in plasma was measured by a liquid chromatography with tandem mass spectrophotometer (LC/MS/MS) after 50 μl of these samples were extracted by protein precipitation with acetonitrile. The compound concentration was determined by the standard curve (concentration vs. peak area) made with the same extraction procedure of controlled plasma. The area under curve (AUC) was calculated using the modified trapezoidal method. The portion of AUC from the last measurable plasma concentration to infinity was estimated by C/k, where k was expressed by the least square regression of the log-linear concentration time points and C represents the last measurable plasma concentration. Bioavailability was calculated by AUCpo/AUCiv.
Compounds (1) and (3) and its internal standard were extracted from heparinized plasma by protein precipitation with acetonitrile. Chromatography was achieved on an XTerra column (Waters, particle size: 5 μm; 100 mm×3.0 mm i.d.) using a mixture of acetonitrile, water and formic acid. Analysis was performed on a Sciex API 365 tandem mass spectrometer with turbo ion spray interface. Negative ions were measured using the multiple-reaction-monitoring (MRM) mode with m/z 399.0→165.1. The run time was 9 min per sample, and Compounds (1) and (3) were quantitated by a peak area ratio using 1/×^2-weighted least-square linear regression plot.

[2] = Solubility in water, saturated suspension filtered and measured by HPLC; assay type: physicochemical; details: for solubility: thermodynamic from solid; for water solubility compared with the corresponding neutral or monosalt compounds: result in words
Procedure: A compound was weighed and water was added to the compound such that the resulting concentration of the compound was about 100 mg/mL. The mixture was then shaken well and sonicated (about 5-10 min at about 50° C.). If the added amounts of the compound were totally solubilized, more amounts of the compound were added to the solution and the mixture was shaken well and sonicated until a suspension was achieved. The suspension was then filtered through a 0.2 μm filter. The filtered solution was diluted with DMSO. Then the mixture was analyzed by HPLC to determine the concentration of the compound.
The HPLC system consisted of the HP 1100 Model (Agilent, Wilmington, Del.) equipped with a model 1100 quaternary pump, a model 1100 autosampler, a model 1100 Diode-Array Detector for UV detection at 280 nm. HPLC analysis was performed using a gradient mobile phase consisting of acetonitrile-water containing 0.1% formic acid. Mobile phases were degassed and filtered through a solvent filtration apparatus and pumped at a constant rate of 1.0 mL/min. Separation was made on an XTerra MS C18 analytical column, 4.6 mm i.d.×150 mm, (Waters Corp., Milford, Mass., USA) fitted with a pre-column filter (XTerra MS C18, 3.9 mm×20 mm). The column was maintained at 40° C.

[3] = water, shaken and sonicated about 5-10 min at about 50° C., filtered 0.2 μm, HPLC
[4] = water, shaken and sonicated about 5-10 min at about 50° C., filtered 0.2 μm, HPLC, read-out: Solubility in water

Compound | water solubility compared with the corresponding neutral or monosalt compounds [2] | solubility [2, 4] [mg/mL] | further results
CN(NC(=O)CC(=O)NN(C)C(=S)c1ccccc1)C(=S)c1ccccc1 [Compound 1, Disodium; 2-(N′-methyl-N′-thiobenzoyl-hydrazinocarbonyl)-1-(methyl-thiobenzoyl-hydrazono)-ethanolate] | significantly greater water solubility |  | bioavailability ([1]; male, beagle, plasma, oral, see Example 16 (dog), read-out: bioavailability): 80%; solubility ([2]; 50 °C, water, read-out: water solubility): > 1000 mg/mL; Solubility in water [2, 3]: >1000 mg/mL
CN(/N=C(\[O-])CC(=O)NN(C)C(=S)c1ccccc1)C(=S)c1ccccc1.[Na+] [Compound 3, Sodium; 2-(N′-methyl-N′-thiobenzoyl-hydrazinocarbonyl)-1-(methyl-thiobenzoyl-hydrazono)-ethanolate] |  | 52.8 | bioavailability ([1]; dog, plasma, male beagle dogs, capsule oral vs intravenous solution, AUCpo/AUCiv, read-out: Bioavailability): 35%
CN(/N=C(\[O-])CC(=O)NN(C)C(=S)c1ccccc1)C(=S)c1ccccc1.[Li+] [Compound 4, Lithium; 2-(N′-methyl-N′-thiobenzoyl-hydrazinocarbonyl)-1-(methyl-thiobenzoyl-hydrazono)-ethanolate] |  | 53.5 | 
CN(/N=C(\[O-])C/C([O-])=N/N(C)C(=S)c1ccccc1)C(=S)c1ccccc1.[Li+].[Li+] [Compound 5, Dilithium; 2-(N′-methyl-N′-thiobenzoyl-hydrazinocarbonyl)-1-(methyl-thiobenzoyl-hydrazono)-ethanolate] | significantly greater water solubility | 626 | 
CN(/N=C(\[O-])C/C([O-])=N/N(C)C(=S)c1ccccc1)C(=S)c1ccccc1.[Mg+2] [Compound 8, Magnesium; 2-(N′-methyl-N′-thiobenzoyl-hydrazinocarbonyl)-1-(methyl-thiobenzoyl-hydrazono)-ethanolate] |  | 43.5 | 
CN(/N=C(\[O-])CC(=O)NN(C)C(=S)c1ccccc1)C(=S)c1ccccc1.[K+] [Compound 10, Monopotassium; 2-(N′-methyl-N′-thiobenzoyl-hydrazinocarbonyl)-1-(methyl-thiobenzoyl-hydrazono)-ethanolate] |  | 41.2 | 
CN(/N=C(\[O-])C/C([O-])=N/N(C)C(=S)C1(C)CC1)C(=S)C1(C)CC1.[Na+].[Na+] [Compound 12, Disodium; 2-(N′-methyl-N′-thio-1-methylcyclopropyl-hydrazinocarbonyl)-1-(methyl-thio-1-methylcyclopropyl-hydrazono)-ethanolate] | significantly greater water solubility | > 1000 | 
CN(/N=C(\[O-])C/C([O-])=N/N(C)C(=S)C1CC1)C(=S)C1CC1.[Na+].[Na+] [Compound 13, Disodium; 2-(N′-methyl-N′-thiocyclopropyl-hydrazinocarbonyl)-1-(methyl-thiocyclopropyl-hydrazono)-ethanolate] | significantly greater water solubility | > 1000 | 
CN(/N=C(\[O-])C/C([O-])=N/N(C)C(=S)C1(C)CC1)C(=S)C1(C)CC1.[K+].[K+] [Compound 14, Dipotassium; 2-(N′-methyl-N′-thio-1-methylcyclopropyl-hydrazinocarbonyl)-1-(methyl-thio-1-methylcyclopropyl-hydrazono)-ethano late] | significantly greater water solubility | > 1000 | 
CN(NC(=O)CC(=O)NN(C)C(=S)c1ccccc1)C(=S)c1ccccc1 [Neutral Form of Compound 1, N-Malonyl-bis(N′-thiobenzoyl-N′-methyl hydrazide)] |  |  | bioavailability ([1]; male beagle dogs, capsule oral vs intravenous solution, AUCpo/AUCiv): 4.8%; bioavailability ([1]; see Example 16 (dog)): 4.8%; water solubility ([2]; water, listed as neutral form of Compounds (1) and (2)): about 0.1 mg/ml; Solubility in water [2, 3]: <0.1 mg/mL
Cholin; 2-(N′-methyl-N′-thiobenzoyl-hydrazinocarbonyl)-1-(methyl-thiobenzoyl-hydrazono)-ethanolate [Compound 11] |  |  | Solubility in water [2, 3]: 264.0 (>200) mg/mL
